According to patent US20240391959A1, “BICYCLIC PEPTIDE LIGANDS […] FOR TRANSFERRIN RECEPTOR 1 (TfR1)” (BicycleTx Limited, priority 2020, published 2024):
“And” between values parts separate entries of the source, which are not always exact repeats. Equal values may be shown once. Starred links: 1 amine or outer side, 2 acyl side, 3 side chain; linkers in the order of their positions; H or OH if unused. Positions of bridges follow the written chain, without caps; N, C: chain ends. Residues, ends and D or L forms follow the SMILES beside them. TATB = O=C(C[*:1])N1CN(C(=O)C[*:2])CN(C(=O)C[*:3])C1

Columns and labels:
Format in all cases: binding
human TfR1 [1] = target: T1, human TfR1 (Homo sapiens, UniProt P02786); test: biochemical; design: His6-tagged TfR1 (a.a. 89-760) (ACRO Biosystems, CD1-H5243 and TFR-C524a); His6; purchased R&D Systems or Acro Biosystems 2474-TR or CD1-H5243; settings: Human TfR1 Kd (nM)
T1 sequence (P02786 89-760): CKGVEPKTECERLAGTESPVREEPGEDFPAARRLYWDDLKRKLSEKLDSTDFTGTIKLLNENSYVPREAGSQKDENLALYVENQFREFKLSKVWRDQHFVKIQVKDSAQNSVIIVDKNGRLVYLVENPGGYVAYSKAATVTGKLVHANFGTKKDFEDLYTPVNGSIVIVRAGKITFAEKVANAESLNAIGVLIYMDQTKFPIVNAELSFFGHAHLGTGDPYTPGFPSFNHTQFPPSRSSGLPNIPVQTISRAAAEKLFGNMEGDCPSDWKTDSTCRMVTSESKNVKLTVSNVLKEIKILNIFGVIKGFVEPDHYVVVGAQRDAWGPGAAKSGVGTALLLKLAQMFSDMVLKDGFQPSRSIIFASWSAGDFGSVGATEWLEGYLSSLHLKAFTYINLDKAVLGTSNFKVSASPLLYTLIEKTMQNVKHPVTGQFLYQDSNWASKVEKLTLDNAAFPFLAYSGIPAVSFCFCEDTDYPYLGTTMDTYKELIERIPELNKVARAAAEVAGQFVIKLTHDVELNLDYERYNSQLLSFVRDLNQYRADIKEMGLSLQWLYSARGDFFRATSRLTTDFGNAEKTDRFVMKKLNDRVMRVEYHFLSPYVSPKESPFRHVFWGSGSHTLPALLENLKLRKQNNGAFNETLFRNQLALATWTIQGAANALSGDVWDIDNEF

cynomolgus TfR1 = target: cynomolgus TfR1
human TfR1 [2] = target: T1, human TfR1; test: biochemical; design: His6-tagged TfR1 (a.a. 89-760) (ACRO Biosystems, CD1-H5243 and TFR-C524a); His6; purchased R&D Systems or Acro Biosystems 2474-TR or CD1-H5243

SMILES | Kd (human TfR1 [1]) [nM] | Kd (cynomolgus TfR1) | Ki (human TfR1 [2]; Geomean Ki (μM)) [µM] | Ki (human TfR1 [2]; Human TfR1 Ki (nM)) [µM]
CC[C@H](C)[C@@H]1NC(=O)[C@@H]2CSCC(=O)N3CN(CN(C3)C(=O)CSC[C@@H](C(=O)N[C@@H](C)C(N)=O)NC(=O)[C@H](Cc3ccc(O)c(C(C)(C)C)c3)NC(=O)[C@H](CO)NC1=O)C(=O)CSC[C@H](NC(=O)[C@H](C)N)C(=O)N[C@@H](CO)C(=O)N1CCC[C@H]1C(=O)N[C@@H](CC(=O)O)C(=O)N[C@@H](C)C(=O)N[C@@H](Cc1c[nH]cn1)C(=O)N[C@@H](CC(C)C)C(=O)NCC(=O)N2 [BCY16079, A-(SEQ ID NO: 37)-A] | 60 | 5.67 µM |  | 
CC[C@H](C)[C@@H]1NC(=O)[C@@H]2CSCC(=O)N3CN(CN(C3)C(=O)CSC[C@@H](C(=O)N3CCC[C@H]3C(=O)N[C@H](C(=O)N[C@H](C(=O)N[C@@H](Cc3c[nH]cn3)C(N)=O)C(C)C)[C@@H](C)CC)NC(=O)[C@H](Cc3ccc(O)cc3)NC(=O)[C@H](CO)NC1=O)C(=O)CSC[C@H](NC(=O)[C@H](C)N)C(=O)N[C@@H](CO)C(=O)N1CCC[C@H]1C(=O)N[C@@H](CC(=O)O)C(=O)N[C@@H](C)C(=O)N[C@@H](Cc1c[nH]cn1)C(=O)N[C@@H](CC(C)C)C(=O)NCC(=O)N2 [BCY17120, A-(SEQ ID NO: 9)-PIVH] |  | 1.26 µM |  | 
CC[C@H](C)[C@@H]1NC(=O)[C@@H]2CSCC(=O)N3CN(CN(C3)C(=O)CSC[C@H](NC(C)=O)C(=O)N[C@@H](CO)C(=O)N3CCC[C@H]3C(=O)N[C@@H](CC(=O)O)C(=O)N[C@@H](C)C(=O)N[C@@H](Cc3c[nH]cn3)C(=O)N[C@@H](CC(C)C)C(=O)NCC(=O)N2)C(=O)CSC[C@@H](C(N)=O)NC(=O)[C@H](Cc2ccc(O)cc2)NC(=O)[C@H](CO)NC1=O [BCY15891, Ac-(SEQ ID NO: 9)] (Ac-CSPDAHLGCISYC-NH2; linker 1-9-13 via TATB) | 46 | 3.99 µM | 0.067 | 0.094
CC[C@H](C)[C@@H]1NC(=O)[C@@H]2CSCC(=O)N3CN(CN(C3)C(=O)CSC[C@@H](C(=O)N[C@@H](CCC(=O)O)C(=O)N3CCC[C@H]3C(=O)N[C@@H](Cc3c[nH]c4ccccc34)C(N)=O)NC(=O)[C@H](Cc3ccc(O)cc3)NC(=O)[C@H](CO)NC1=O)C(=O)CSC[C@H](NC(C)=O)C(=O)N[C@@H](CO)C(=O)N1CCC[C@H]1C(=O)N[C@@H](CC(=O)O)C(=O)N[C@@H](C)C(=O)N[C@@H](Cc1c[nH]cn1)C(=O)N[C@@H](CC(C)C)C(=O)NCC(=O)N2 [BCY17994, Ac-(SEQ ID NO: 9)-EPW] |  | 0.688 µM | 0.008 | 0.008
CC[C@H](C)[C@@H]1NC(=O)[C@@H]2CSCC(=O)N3CN(CN(C3)C(=O)CSC[C@H](NC(=O)[C@H](CC(N)=O)NC(=O)[C@H](Cc3cccc4ccccc34)NC(=O)[C@H](CC(N)=O)NC(C)=O)C(=O)N[C@@H](CO)C(=O)N3CCC[C@H]3C(=O)N[C@@H](CC(=O)O)C(=O)N[C@@H](C)C(=O)N[C@@H](Cc3c[nH]cn3)C(=O)N[C@@H](CC(C)C)C(=O)NCC(=O)N2)C(=O)CSC[C@@H](C(N)=O)NC(=O)[C@H](Cc2ccc(O)cc2)NC(=O)[C@H](CO)NC1=O [BCY18034, Ac-N[1Nal]N-(SEQ ID NO: 9)] |  | 2.08 µM |  | 0.01
CC[C@H](C)[C@@H]1NC(=O)[C@@H]2CSCC(=O)N3CN(CN(C3)C(=O)CSC[C@@H](C(=O)N[C@@H](CCC(=O)O)C(=O)N3CCC[C@H]3C(=O)N[C@@H](Cc3c[nH]c4ccccc34)C(N)=O)NC(=O)[C@H](Cc3ccc(O)cc3)NC(=O)[C@H](CO)NC1=O)C(=O)CSC[C@H](NC(=O)[C@H](C)N)C(=O)N[C@@H](CO)C(=O)N1CCC[C@H]1C(=O)N[C@@H](CC(=O)O)C(=O)N[C@@H](C)C(=O)N[C@@H](Cc1c[nH]cn1)C(=O)N[C@@H](CC(C)C)C(=O)NCC(=O)N2 [BCY17114, A-(SEQ ID NO: 9)-EPW] |  | 0.845 µM |  | 
CC[C@H](C)[C@@H]1NC(=O)[C@@H]2CSCC(=O)N3CN(CN(C3)C(=O)CSC[C@@H](C(=O)N[C@@H](C)C(N)=O)NC(=O)[C@H](Cc3cccc4ccccc34)NC(=O)[C@H](CO)NC1=O)C(=O)CSC[C@H](NC(=O)[C@H](C)N)C(=O)N[C@@H](CO)C(=O)N1CCC[C@H]1C(=O)N[C@@H](CC(=O)O)C(=O)N[C@@H](C)C(=O)N[C@@H](Cc1c[nH]cn1)C(=O)N[C@@H](CC(C)C)C(=O)NCC(=O)N2 [BCY16029, A-(SEQ ID NO: 39)-A] |  | 5.48 µM |  | 
CC[C@H](C)[C@@H]1NC(=O)[C@@H]2CSCC(=O)N3CN(CN(C3)C(=O)CSC[C@@H](C(=O)N[C@@H](CCC(=O)O)C(=O)N3CC[C@H]3C(=O)N[C@@H](Cc3c[nH]c4ccccc34)C(N)=O)NC(=O)[C@H](Cc3ccc(O)cc3)NC(=O)[C@H](CO)NC1=O)C(=O)CSC[C@H](NC(C)=O)C(=O)N[C@@H](CO)C(=O)N1CCC[C@H]1C(=O)N[C@@H](CC(=O)O)C(=O)N[C@@H](C)C(=O)N[C@@H](Cc1c[nH]cn1)C(=O)N[C@@H](CC(C)C)C(=O)NCC(=O)N2 [BCY18037, Ac-(SEQ ID NO: 9)-E[Aze]W] |  | 1.08 µM |  | 
CC[C@H](C)[C@@H]1NC(=O)[C@@H]2CSCC(=O)N3CN(CN(C3)C(=O)CSC[C@@H](C(=O)N[C@@H](CCC(=O)O)C(=O)N3CCC[C@@H]3C(=O)N[C@@H](Cc3c[nH]c4ccccc34)C(N)=O)NC(=O)[C@H](Cc3ccc(O)cc3)NC(=O)[C@H](CO)NC1=O)C(=O)CSC[C@H](NC(C)=O)C(=O)N[C@@H](CO)C(=O)N1CCC[C@H]1C(=O)N[C@@H](CC(=O)O)C(=O)N[C@@H](C)C(=O)N[C@@H](Cc1c[nH]cn1)C(=O)N[C@@H](CC(C)C)C(=O)NCC(=O)N2 [BCY18038, Ac-(SEQ ID NO: 9)-E[dP]W] |  | 1.65 µM |  | 
CC(C)C[C@@H]1NC(=O)[C@H](Cc2ccc(O)cc2)NC(=O)[C@H](C)NC(=O)[C@H](CC(=O)O)NC(=O)[C@@H]2CCCN2C(=O)[C@@H]2CCCN2C(=O)[C@@H](NC(=O)[C@H](C)N)CSCC(=O)N2CN3CN(C2)C(=O)CSC[C@@H](C(=O)N[C@@H](C)C(N)=O)NC(=O)[C@H](Cc2ccc(O)cc2)NC(=O)[C@H](CO)NC(=O)[C@H](C(C)(C)C)NC(=O)[C@H](CSCC3=O)NC(=O)CNC1=O [BCY16964, A-(SEQ ID NO: 22)-A] |  | 0.514 µM |  | 
CC[C@H](C)[C@@H]1NC(=O)[C@@H]2CSCC(=O)N3CN(CN(C3)C(=O)CSC[C@H](NC(C)=O)C(=O)N[C@@H](C)C(=O)N3CCC[C@H]3C(=O)N[C@@H](CC(=O)O)C(=O)N[C@@H](C)C(=O)N[C@@H](Cc3c[nH]cn3)C(=O)N[C@@H](CC(C)C)C(=O)NCC(=O)N2)C(=O)CSC[C@@H](C(N)=O)NC(=O)[C@H](Cc2ccc(O)cc2)NC(=O)[C@H](CO)NC1=O [BCY17986, Ac-(SEQ ID NO: 24)] |  | 4.66 µM |  | 
CC[C@H](C)[C@@H]1NC(=O)[C@@H]2CSCC(=O)N3CN(CN(C3)C(=O)CSC[C@H](NC(=O)[C@H](CC(N)=O)NC(=O)[C@H](Cc3c[nH]c4ccccc34)NC(=O)[C@@H](N)CC(N)=O)C(=O)N[C@@H](CO)C(=O)N3CCC[C@H]3C(=O)N[C@@H](CC(=O)O)C(=O)N[C@@H](C)C(=O)N[C@@H](Cc3c[nH]cn3)C(=O)N[C@@H](CC(C)C)C(=O)NCC(=O)N2)C(=O)CSC[C@@H](C(=O)N[C@@H](C)C(N)=O)NC(=O)[C@H](Cc2ccc(O)cc2)NC(=O)[C@H](CO)NC1=O [BCY17109, NWN-(SEQ ID NO: 9)-A] |  | 0.281 µM and 0.535 µM | 0.009 | 
CC[C@H](C)[C@@H]1NC(=O)[C@@H]2CSCC(=O)N3CN(CN(C3)C(=O)CSC[C@H](NC(=O)[C@@H](NC(=O)[C@H](CCC(=O)O)NC(=O)[C@@H](N)CC(N)=O)C(C)C)C(=O)N[C@@H](CO)C(=O)N3CCC[C@H]3C(=O)N[C@@H](CC(=O)O)C(=O)N[C@@H](C)C(=O)N[C@@H](Cc3c[nH]cn3)C(=O)N[C@@H](CC(C)C)C(=O)NCC(=O)N2)C(=O)CSC[C@@H](C(=O)N[C@@H](C)C(N)=O)NC(=O)[C@H](Cc2ccc(O)cc2)NC(=O)[C@H](CO)NC1=O [BCY17112, NEV-(SEQ ID NO: 9)-A] |  | 2.6 µM |  | 
CC[C@H](C)[C@@H]1NC(=O)[C@@H]2CSCC(=O)N3CN(CN(C3)C(=O)CSC[C@H](NC(=O)[C@H](CC(N)=O)NC(=O)[C@H](Cc3c[nH]c4ccccc34)NC(=O)[C@H](CC(N)=O)NC(C)=O)C(=O)N[C@@H](CO)C(=O)N3CCC[C@H]3C(=O)N[C@@H](CC(=O)O)C(=O)N[C@@H](C)C(=O)N[C@@H](Cc3c[nH]cn3)C(=O)N[C@@H](CC(C)C)C(=O)NCC(=O)N2)C(=O)CSC[C@@H](C(N)=O)NC(=O)[C@H](Cc2ccc(O)cc2)NC(=O)[C@H](CO)NC1=O [BCY17992, Ac-NWN-(SEQ ID NO: 9)] |  | 0.535 µM |  | 
CC[C@H](C)[C@@H]1NC(=O)[C@@H]2CSCC(=O)N3CN(CN(C3)C(=O)CSC[C@H](NC(=O)[C@H](CC(N)=O)NC(=O)[C@@H](Cc3c[nH]c4ccccc34)NC(=O)[C@H](CC(N)=O)NC(C)=O)C(=O)N[C@@H](CO)C(=O)N3CCC[C@H]3C(=O)N[C@@H](CC(=O)O)C(=O)N[C@@H](C)C(=O)N[C@@H](Cc3c[nH]cn3)C(=O)N[C@@H](CC(C)C)C(=O)NCC(=O)N2)C(=O)CSC[C@@H](C(N)=O)NC(=O)[C@H](Cc2ccc(O)cc2)NC(=O)[C@H](CO)NC1=O [BCY18035, Ac-N[dW]N-(SEQ ID NO: 9)] |  | 10.3 µM | 0.02 | 
CC[C@H](C)[C@@H]1NC(=O)[C@@H]2CSCC(=O)N3CN(CN(C3)C(=O)CSC[C@H](NC(C)=O)C(=O)N[C@@H](CO)C(=O)N3CC[C@H]3C(=O)N[C@@H](CC(=O)O)C(=O)N[C@@H](C)C(=O)N[C@@H](Cc3c[nH]cn3)C(=O)N[C@@H](CC(C)C)C(=O)NCC(=O)N2)C(=O)CSC[C@@H](C(N)=O)NC(=O)[C@H](Cc2ccc(O)cc2)NC(=O)[C@H](CO)NC1=O [BCY17988, Ac-(SEQ ID NO: 44)] | 649 |  | 0.272 | 0.213
